US20240174723A1, “STAPLED ANTIMICROBIAL PEPTIDES (STAMPS) AND USES THEREOF” (Lytica Therapeutics, Inc., priority 2021, published 2024)
Converted amounts (≈) assume the structure as drawn. Positions of bridges follow the written chain, without caps; N, C: chain ends. Non-standard residues stand in square brackets, D forms with d. Residues, ends and D or L forms follow the SMILES beside them. PEG5 = NCCOCCOCCOCCOCCOCCC(=O)O; PEG4 = NCCOCCOCCOCCOCCC(=O)O; S5 = C=CCCC[C@](C)(N)C(=O)O; PEG3 = NCCOCCOCCOCCC(=O)O; Dap = NC[C@H](N)C(=O)O; PEG2 = NCCOCCOCCC(=O)O; PEG1 = NCCOCCC(=O)O

Assays:
E. coli = assay type: cell-based, Escherichia coli
Summary of the method: (§1)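 Colonies are grown overnight at 37 °C, diluted and regrown 3-4 h. Bacteria in MHB or MHB II are then added to serial peptide dilutions to reach 5×10^5 CFU/ml. Plates are incubated 20-24 h at 37 °C and scored for the lowest concentration without visible growth.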

in vitro [1] = assay type: cell-based; settings: human
Summary of the method: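 LDH release (absorbance at 490 nm) measured in the media of cells treated with serially diluted StAMPs or vehicle at 37 °C: 90 min for renal RPTEC, 48 h for liver HepG2. Cells were seeded overnight beforehand and media refreshed before dosing.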

K. pneumoniae = assay type: cell-based, Klebsiella pneumoniae
Summary of the method: as §1

A. baumannii = assay type: cell-based, Acinetobacter baumannii
Summary of the method: as §1

P. aeruginosa = assay type: cell-based, Pseudomonas aeruginosa
Summary of the method: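 MIC taken as lowest peptide concentration with no visible growth after 20-24 h at 37 °C. Peptide serial dilutions from water stocks met P. aeruginosa inoculum (5×10^5 CFU/ml final) in MHB or MHB II, per a CLSI-adapted microbroth protocol.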

in vitro [2] = assay type: cell-based; settings: human, Inhibitory Concentration at 50% Cytotoxicity (IC50) Human Liver Cells (HepG2)
Summary of the method: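 Cytotoxicity read by CellTiter-Glo luminescence after 48 h at 37 °C exposure to serially diluted StAMPs or vehicle. HepG2 cells were grown in EMEM plus 10% FBS and given 4 h to attach before dosing; peptides came from a 5 mg/mL aqueous stock.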

S. aureus = assay type: cell-based, Staphylococcus aureus
Summary of the method: as §1

SMILES | Minimum Inhibitory Concentration (MIC) E. coli (E. coli) | IC50 at 90 min (in vitro [1]) | Minimum Inhibitory Concentration (MIC) K. pneumoniae (K. pneumoniae) | Minimum Inhibitory Concentration (MIC) A. baumannii (A. baumannii) | Minimum Inhibitory Concentration (MIC) P. aeruginosa (P. aeruginosa) | IC50 at 48 hours (in vitro [2]) | Minimum Inhibitory Concentration (MIC) S. aureus (S. aureus)
CC(C)[C@@H]1NC(=O)[C@@](C)(NC(=O)[C@H](CCCCN)NC(=O)[C@H](CCCCN)NC(=O)[C@H](CCCCN)NC(=O)[C@H](CCCCN)NC(=O)[C@H](CCCCN)NC(=O)[C@]2(C)CCCC=CCCC[C@](C)(NC(=O)CN)C(=O)NCC(=O)N[C@@H](CCCCN)C(=O)N[C@@H](Cc3ccccc3)C(=O)N2)CCCC=CCCC[C@@](C)(C(=O)N[C@@H](C)C(=O)N[C@@H](CCCCN)C(=O)N[C@@H](CCCCN)C(N)=O)NC(=O)[C@H](CCC(=O)O)NC(=O)CNC1=O [compound 70] (H-G[S5]GKF[S5]KKKKK[S5]VGE[S5]AKK-NH2; staple 2-6, 12-16) | 4 µg/mL | 125 µg/mL (≈ 57.8 µM) | 4 µg/mL | 16 µg/mL | 4 µg/mL | 102 µg/mL (≈ 47.2 µM) | >64 µg/mL
CC(C)[C@@H]1NC(=O)[C@@](C)(NC(=O)[C@H](C)NC(=O)[C@H](CCCCN)NC(=O)CNC(=O)[C@H](Cc2ccccc2)NC(=O)[C@H](CCCCN)NC(=O)[C@H](CCCCN)NC(=O)[C@H](CCCCN)NC(=O)[C@H](CCCCN)NC(=O)[C@H](CCCCN)NC(=O)[C@]2(C)CCCC=CCCC[C@](C)(NC(=O)CN)C(=O)NCC(=O)N[C@@H](CCCCN)C(=O)N[C@@H](Cc3ccccc3)C(=O)N2)CCCC=CCCC[C@@](C)(C(=O)N[C@@H](C)C(=O)N[C@@H](CCCCN)C(=O)N[C@@H](CCCCN)C(=O)NCCOCCC(N)=O)NC(=O)[C@H](CCC(=O)O)NC(=O)CNC1=O [compound 71] (H-G[S5]GKF[S5]KKKKKFGKA[S5]VGE[S5]AKK[PEG1]-NH2; staple 2-6, 16-20) | 2 µg/mL | 200 µg/mL (≈ 74.6 µM) | 4 µg/mL | 2 µg/mL | 4 µg/mL | 247 µg/mL (≈ 92.2 µM) | >64 µg/mL
CC(C)[C@@H]1NC(=O)[C@@](C)(NC(=O)[C@H](C)NC(=O)[C@H](CCCCN)NC(=O)CNC(=O)[C@H](Cc2ccccc2)NC(=O)[C@H](CCCCN)NC(=O)[C@H](CCCCN)NC(=O)[C@H](CCCCN)NC(=O)[C@H](CCCCN)NC(=O)[C@H](CCCCN)NC(=O)[C@]2(C)CCCC=CCCC[C@](C)(NC(=O)CN)C(=O)NCC(=O)N[C@@H](CCCCN)C(=O)N[C@@H](Cc3ccccc3)C(=O)N2)CCCC=CCCC[C@@](C)(C(=O)N[C@@H](C)C(=O)N[C@@H](CCCCN)C(=O)N[C@@H](CCCCN)C(=O)NCCOCCOCCC(N)=O)NC(=O)[C@H](CCC(=O)O)NC(=O)CNC1=O [compound 72] (H-G[S5]GKF[S5]KKKKKFGKA[S5]VGE[S5]AKK[PEG2]-NH2; staple 2-6, 16-20) | 2 µg/mL | 200 µg/mL (≈ 73.4 µM) | 4 µg/mL | 2 µg/mL | 4 µg/mL | 275 µg/mL (≈ 101 µM) | >64 µg/mL
CC(C)[C@@H]1NC(=O)[C@@](C)(NC(=O)[C@H](C)NC(=O)[C@H](CCCCN)NC(=O)CNC(=O)[C@H](Cc2ccccc2)NC(=O)[C@H](CCCCN)NC(=O)[C@H](CCCCN)NC(=O)[C@H](CCCCN)NC(=O)[C@H](CCCCN)NC(=O)[C@H](CCCCN)NC(=O)[C@]2(C)CCCC=CCCC[C@](C)(NC(=O)CN)C(=O)NCC(=O)N[C@@H](CCCCN)C(=O)N[C@@H](Cc3ccccc3)C(=O)N2)CCCC=CCCC[C@@](C)(C(=O)N[C@@H](C)C(=O)N[C@@H](CCCCN)C(=O)N[C@@H](CCCCN)C(=O)NCCOCCOCCOCCC(N)=O)NC(=O)[C@H](CCC(=O)O)NC(=O)CNC1=O [compound 73] (H-G[S5]GKF[S5]KKKKKFGKA[S5]VGE[S5]AKK[PEG3]-NH2; staple 2-6, 16-20) | 2 µg/mL | 671 µg/mL (≈ 242 µM) | 4 µg/mL | 2 µg/mL | 4 µg/mL | 407 µg/mL (≈ 147 µM) | >64 µg/mL
CC(C)[C@@H]1NC(=O)[C@@](C)(NC(=O)[C@H](C)NC(=O)[C@H](CCCCN)NC(=O)CNC(=O)[C@H](Cc2ccccc2)NC(=O)[C@H](CCCCN)NC(=O)[C@H](CCCCN)NC(=O)[C@H](CCCCN)NC(=O)[C@H](CCCCN)NC(=O)[C@H](CCCCN)NC(=O)[C@]2(C)CCCC=CCCC[C@](C)(NC(=O)CN)C(=O)NCC(=O)N[C@@H](CCCCN)C(=O)N[C@@H](Cc3ccccc3)C(=O)N2)CCCC=CCCC[C@@](C)(C(=O)N[C@@H](C)C(=O)N[C@@H](CCCCN)C(=O)N[C@@H](CCCCN)C(=O)NCCOCCOCCOCCOCCC(N)=O)NC(=O)[C@H](CCC(=O)O)NC(=O)CNC1=O [compound 74] (H-G[S5]GKF[S5]KKKKKFGKA[S5]VGE[S5]AKK[PEG4]-NH2; staple 2-6, 16-20) | 2 µg/mL | > 200 µg/mL | 4 µg/mL | 2 µg/mL | 4 µg/mL | 430 µg/mL (≈ 153 µM) | >64 µg/mL
CC(C)[C@@H]1NC(=O)[C@@](C)(NC(=O)[C@H](C)NC(=O)[C@H](CCCCN)NC(=O)CNC(=O)[C@H](Cc2ccccc2)NC(=O)[C@H](CCCCN)NC(=O)[C@H](CCCCN)NC(=O)[C@H](CCCCN)NC(=O)[C@H](CCCCN)NC(=O)[C@H](CCCCN)NC(=O)[C@]2(C)CCCC=CCCC[C@](C)(NC(=O)CN)C(=O)NCC(=O)N[C@@H](CCCCN)C(=O)N[C@@H](Cc3ccccc3)C(=O)N2)CCCC=CCCC[C@@](C)(C(=O)N[C@@H](C)C(=O)N[C@@H](CCCCN)C(=O)N[C@@H](CCCCN)C(=O)NCCOCCOCCOCCOCCOCCC(N)=O)NC(=O)[C@H](CCC(=O)O)NC(=O)CNC1=O [compound 75] (H-G[S5]GKF[S5]KKKKKFGKA[S5]VGE[S5]AKK[PEG5]-NH2; staple 2-6, 16-20) | 4 µg/mL | > 200 µg/mL | 8 µg/mL | 2 µg/mL | 4 µg/mL | 357 µg/mL (≈ 125 µM) | >64 µg/mL
CC(C)[C@@H]1NC(=O)[C@@](C)(NC(=O)[C@H](C)NC(=O)[C@H](CN)NC(=O)CNC(=O)[C@H](Cc2ccccc2)NC(=O)[C@H](CN)NC(=O)[C@H](CN)NC(=O)[C@H](CN)NC(=O)[C@H](CN)NC(=O)[C@H](CN)NC(=O)[C@]2(C)CCCC=CCCC[C@](C)(NC(=O)CN)C(=O)NCC(=O)N[C@@H](CN)C(=O)N[C@@H](Cc3ccccc3)C(=O)N2)CCCC=CCCC[C@@](C)(C(=O)N[C@@H](C)C(=O)N[C@@H](CN)C(=O)N[C@@H](CN)C(=O)NCC(N)=O)NC(=O)[C@H](CCC(=O)O)NC(=O)CNC1=O [compound 76] (H-G[S5]G[Dap]F[S5][Dap][Dap][Dap][Dap][Dap]FG[Dap]A[S5]VGE[S5]A[Dap][Dap]G-NH2; staple 2-6, 16-20) | 1 µg/mL | > 200 µg/mL | 16 µg/mL | 16 µg/mL | 16 µg/mL | > 200 µg/mL | 64 µg/mL
CC(C)[C@@H]1NC(=O)[C@@](C)(NC(=O)[C@H](C)NC(=O)[C@H](CCCCN)NC(=O)CNC(=O)[C@H](Cc2ccccc2)NC(=O)[C@H](CCCCN)NC(=O)[C@H](CCCCN)NC(=O)[C@H](CCCCN)NC(=O)[C@H](CCCCN)NC(=O)[C@H](CCCCN)NC(=O)[C@]2(C)CCCC=CCCC[C@](C)(NC(=O)CN)C(=O)NCC(=O)N[C@@H](CCCCN)C(=O)N[C@@H](Cc3ccccc3)C(=O)N2)CCCC=CCCC[C@@](C)(C(=O)N[C@@H](C)C(=O)N[C@@H](CCCCN)C(=O)N[C@@H](CCCCN)C(=O)NCC(=O)NCC(=O)N[C@@H](CCC(N)=O)C(N)=O)NC(=O)[C@H](CCC(=O)O)NC(=O)CNC1=O [compound 77] (H-G[S5]GKF[S5]KKKKKFGKA[S5]VGE[S5]AKKGGQ-NH2; staple 2-6, 16-20) | 4 µg/mL | > 200 µg/mL | 16 µg/mL | 3 µg/mL | 4 µg/mL | > 200 µg/mL | >64 µg/mL
